The record followed here is ChEMBL document CHEMBL1201862, “PubChem BioAssay data set” (2004).

SMILES strings stand for the structures.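 Following 48 hours of exposure in 96-well plates, responses at five concentrations were used to interpolate endpoints linearly. At the GI50, growth is halved.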 Calls of active or inactive are those of the source. Cut-off read from the data, not from the text of the source: active = GI50 up to about 1.1 µM and inactive = higher.

Test in all cases: DTP human tumour cell line panel, 48 h
Assay [1] concerns HCC 2998.
Assay [2] concerns CCRF-CEM.
For assay [3], the system named is COLO 205.
For assay [4], the system named is SF-295.
Assay [5] has as its system Malme-3M.
Assay [6] concerns SW-620.
Assay [7] relates to NCI-H460.
In assay [8] the test system is A549.
In assay [9] the test system is U-251.
In assay [10] the test system is NCI-H522.
The subject of assay [11] is HL-60.
In assay [12] the test system is SK-MEL-5.
The test system of assay [13] is A498.
Assay [14] has as its system OVCAR-3.
In assay [15] the test system is HCT-15.
The test system of assay [16] is IGROV-1.
Assay [17] concerns OVCAR-8.
The subject of assay [18] is SK-OV-3.
For assay [19], the system named is TK-10.

Take `Cn1cnc(S[C@H]2[C@H]3C(=O)C=C4S[C@H]5C[C@]42C2=C(N5)C(=O)c4[nH]cc5c4C2=[N+]3CC5)c1C[C@H](N)C(=O)O`: the GI50 in [1] is 16.2 µM (inactive); in assay [2], 17.1 µM (inactive); in assay [3], 2.11 µM (inactive); in [4] it was 15.8 µM (inactive); in assay [5], 3.72 µM (inactive); in assay [6] it was 6.14 µM (inactive). The GI50 was 27.5 µM (inactive) in assay [7]; 20.4 µM (inactive) in [8]; 17.2 µM (inactive) in [9]; 4.58 µM (inactive) in assay [10]; 15.3 µM (inactive) in assay [11]; 13.4 µM (inactive) in [12]. The GI50 in assay [13] was 18.8 µM (inactive); in assay [14] it was 3.5 µM (inactive); in assay [15] it was 30.8 µM; in assay [16], 16.4 µM (inactive); in [17], 13.6 µM (inactive); in assay [18], 21.4 µM (inactive). Also, in [19], the GI50 is 38.3 µM (inactive).

Consider `COc1cc(-c2nnc3n2NC=C(C(=O)O)S3)cc(OC)c1OC`, for which the GI50 in assay [1] was > 100 µM (inactive); in assay [2], 29.7 µM (inactive); in assay [3] it was > 57.5 µM (inactive); in assay [4], > 100 µM (inactive); in assay [5] it was > 100 µM (inactive); in [6] it was > 39.5 µM (inactive). Further, the GI50 in assay [7] is > 71.4 µM (inactive); in assay [8], > 100 µM (inactive); in assay [9], > 68.2 µM (inactive); in [10], > 100 µM (inactive); in assay [11], > 61.4 µM (inactive); in assay [12] it was > 100 µM (inactive). In addition, the GI50 in [13] was > 100 µM (inactive); in [14], > 100 µM (inactive); in assay [15], > 54.5 µM; in assay [16] it was > 100 µM (inactive); in assay [17], > 100 µM (inactive); in assay [18], > 100 µM (inactive). For the same compound, in assay [19], the GI50 is > 100 µM (inactive).

Turning to `Cc1cnc[nH]c1=O`, the GI50 in assay [1], in assay [2], in [3], in assay [4], in [5] and in assay [6] was > 100 µM (inactive) throughout. The GI50 in assay [7], in assay [8], in assay [9], in assay [10], in assay [11] and in assay [12] was > 100 µM (inactive) in each case. Also, the GI50 in assay [13] is > 100 µM (inactive); in [14], > 100 µM (inactive); in assay [15], > 100 µM; in assay [16] it was > 100 µM (inactive); in assay [17], > 100 µM (inactive); in assay [18], > 100 µM (inactive). In addition, the GI50 in [19] is > 100 µM (inactive).

Take `CCCN1C(=O)CNC(=O)c2[nH]cnc21`: the GI50 in assay [1], in assay [2], in assay [3], in assay [4], in [5] and in assay [6] was > 100 µM (inactive) each time. Besides, the GI50 in assay [7], in [8], in [9], in assay [10], in [11] and in assay [12] was > 100 µM (inactive) throughout. For the same compound, the GI50 in assay [13] is > 100 µM (inactive); in assay [14], > 100 µM (inactive); in assay [15], > 100 µM; in assay [16] it was > 100 µM (inactive); in assay [17] it was > 100 µM (inactive); in assay [18], > 100 µM (inactive). In addition, the GI50 in [19] was > 100 µM (inactive).

Turning to `COc1cc(C2[C@H]3C(=O)N(c4ccc(Cc5ccc(N6C(=O)[C@@H]7ON(c8ccccc8)C(c8cc(OC)c(OC)c(OC)c8)[C@@H]7C6=O)cc5)cc4)C(=O)[C@H]3ON2c2ccccc2)cc(OC)c1OC` (stereo not given in full), the GI50 in assay [1] was > 100 µM (inactive); in assay [2] it was > 100 µM (inactive); in assay [3], > 100 µM (inactive); in assay [4], > 100 µM (inactive); in [5], 46.3 µM (inactive); in assay [6], > 100 µM (inactive). For the same compound, the GI50 in [7] was > 100 µM (inactive); in [8] it was > 100 µM (inactive); in [9], > 100 µM (inactive); in [10] it was > 100 µM (inactive); in assay [11] it was > 100 µM (inactive); in assay [12], 38.5 µM (inactive). The GI50 is > 100 µM (inactive) in [13]; > 100 µM (inactive) in assay [14]; > 100 µM in assay [15]; > 100 µM (inactive) in assay [16]; > 100 µM (inactive) in assay [17]; > 100 µM (inactive) in [18]. Also, the GI50 in assay [19] was > 100 µM (inactive).

On to `Nc1cc2c3c(cccc3c1)C(=O)N(CCN1CCN(CCN3C(=O)c4cccc5cc(N)cc(c45)C3=O)CC1)C2=O`, for which the GI50 in [1] was > 100 µM (inactive); in assay [2], > 100 µM (inactive); in assay [3], > 100 µM (inactive); in assay [4], 97.1 µM (inactive); in assay [5] it was > 100 µM (inactive); in assay [6], 38.8 µM (inactive). Besides, the GI50 is 33.3 µM (inactive) in assay [7]; 46.3 µM (inactive) in [8]; > 100 µM (inactive) in [9]; > 100 µM (inactive) in assay [10]; > 100 µM (inactive) in [11]; > 100 µM (inactive) in [12]. Further, the GI50 was > 100 µM (inactive) in [13]; > 100 µM (inactive) in assay [14]; > 100 µM in assay [15]; > 100 µM (inactive) in assay [16]; 74.3 µM (inactive) in assay [17]; > 100 µM (inactive) in assay [18]. The GI50 in [19] was > 100 µM (inactive).

Turning to `O=C1CNc2cc(N3CCN(c4ccccc4)CC3)ccc2N1`, the GI50 in assay [1], in assay [2], in [3], in assay [4], in [5] and in [6] was > 100 µM (inactive) each time. In addition, the GI50 in assay [7], in assay [8], in assay [9], in [10], in assay [11] and in assay [12] was > 100 µM (inactive) in each case. For the same compound, the GI50 is > 100 µM (inactive) in assay [13]; > 100 µM (inactive) in [14]; > 100 µM in assay [15]; > 100 µM (inactive) in assay [16]; > 100 µM (inactive) in [17]; > 100 µM (inactive) in [18]. The GI50 in assay [19] was > 100 µM (inactive).

As for `CC(=O)OC1CC2C(C)(C)OC(=O)CC(OC(C)=O)[C@]2(C)C2CCC3(C)C(=CCC3c3ccoc3)[C@]12C` (stereo not given in full), the GI50 in assay [1] is 18.4 µM (inactive); in [2] it was 18.2 µM (inactive); in assay [3], 14.1 µM (inactive); in assay [4], 18 µM (inactive); in assay [5] it was 25.6 µM (inactive); in assay [6] it was 32.1 µM (inactive). In addition, the GI50 in [7] was 21.4 µM (inactive); in assay [8], 19.4 µM (inactive); in [9], 37.6 µM (inactive); in [10], 15.6 µM (inactive); in [11], 16.1 µM (inactive); in assay [12], 21.4 µM (inactive). For the same compound, the GI50 was 17.6 µM (inactive) in [13]; 16.2 µM (inactive) in assay [14]; 26.2 µM in assay [15]; 24.5 µM (inactive) in assay [16]; 18.1 µM (inactive) in [17]; 21.7 µM (inactive) in assay [18]. Also, the GI50 in assay [19] is 49 µM (inactive).

On to `COc1cccc(-c2cc(=O)c3cc(C)c(C)c(C(=O)O)c3o2)c1`, for which the GI50 in assay [1], in [2], in assay [3], in [4], in assay [5] and in assay [6] was > 100 µM (inactive) in each case. The GI50 in assay [7], in assay [8], in assay [9], in assay [10], in assay [11] and in [12] was > 100 µM (inactive) throughout. The GI50 in [13] is > 100 µM (inactive); in assay [14], > 100 µM (inactive); in [15], > 100 µM; in assay [16], > 100 µM (inactive); in assay [17] it was > 100 µM (inactive); in assay [18] it was > 100 µM (inactive). The GI50 in assay [19] was > 100 µM (inactive).

On to `CC1(C)CC(=O)C(CC2C(=O)CCCC2=O)C(=O)C1`, for which the GI50 in assay [1], in [2], in assay [3], in assay [4], in assay [5] and in assay [6] was > 100 µM (inactive) each time. The GI50 in assay [7], in assay [8], in assay [9], in assay [10], in assay [11] and in assay [12] was > 100 µM (inactive) in each case. Moreover, the GI50 in [13] is > 100 µM (inactive); in assay [14], > 100 µM (inactive); in assay [15], > 100 µM; in assay [16], > 100 µM (inactive); in [17] it was > 100 µM (inactive); in [18], > 100 µM (inactive). The GI50 in assay [19] was > 100 µM (inactive).
